In US20250296922A1, “POLYSUBSTITUTED PYRROLIDINE DERIVATIVE, PREPARATION METHOD THEREFOR AND USE THEREOF” (SHANGHAI WENNAI THERAPEUTICS CO LTD, priority 2023, published 2025):

Assays:
Nav1.8 sodium channel = Nav1.8 sodium channel (Homo sapiens (Human), UniProt Q9Y5Y9); experiment: NaV1.8 blocking activity, manual patch clamp; format: cell-based; conditions: CHO cell line stably expressing Nav1.8
Protocol: The NaV1.8 blocking activity was determined by using a manual patch clamp technique to detect the effect of the subject on the channel currents of stably overexpressed Nav1.8.
CHO cell line stably expressing the Nav1.8 sodium channel was used for the experiments, gene information: sodium channel, voltage-gated, type 8, alpha (SCN10A), cDNA strictly similar to GenBank accession number: NM 006514.
Cells were cultured in HAM'S/F-12 medium containing 10% foetal bovine serum and 10 μg/mL Blasticidin, 200 μg/mL Hygromycin B, and 100 μg/mL Zeocin at 37° C., 5% CO2. For expansion or maintenance cultures, cells were treated with 0.25%-Trypsin-EDTA, washed and centrifuged, and then inoculated in 6-cm cell culture dishes with 2.5×10^5lls per cell culture dish (final volume: 5 mL).
Prior to the patch clamp detection, cells were separated with 0.25%-Trypsin-EDTA and 6.5×10^3 cells were spread onto coverslips and incubated (final volume: 500 μL) in 24-well plates for 18 hours, then the test was performed.
50 mM CsCl, 10 mM NaCl, 10 mM HEPES, 60 mM CsF, 20 mM EGTA, and pH was adjusted to 7.2 with CsOH. • Instrument information is provided in Table 2 below:
Prior to Nav1.8 channel current testing, a blank control solution (DMSO) was diluted into 10 ml of extracellular fluid as the working solution. Positive controls and subjects were first diluted with different doses of DMSO depending on the final concentration before being diluted as working solution using extracellular fluid. 100 nM TTX was added to each working solution to block the TTX-S current. The working solution was sonicated for 20 min before performing the patch clamp test detection.
Patch clamp manipulation: firstly, the capillary glass tube was drawn into a recording electrode using a microelectrode puller, then the electrode filled with intracellular fluid was loaded into the microelectrode holder, and the microelectrode manipulator was manoeuvred under an inverted microscope to immerse the electrode into the extracellular fluid and record the electrode resistance (Rpip). The electrode was then slowly contacted to the cell surface and negative pressure suction was given to form a GQ2 seal. At this time, fast capacitance compensation was performed and negative pressure was continually applied to suction through the cell membrane to form a whole-cell recording pattern. Finally, slow capacitance compensation was performed and experimental parameters such as series resistance (Rs) were recorded. No leakage compensation was given.
Drug administration was initiated when the Nav1.8 current was stabilized for whole-cell recordings, and the next concentration was detected after each drug concentration had acted for approximately 5 min (or until the current was stable). Cell-lined coverslips were placed in the recording bath under an inverted microscope, and the blank control external solution as well as the working solution of the compound to be tested flowed sequentially from low to high concentrations through the recording bath by using gravitational perfusion and thus acted on the cells, and a peristaltic pump was used to exchange fluids during the recording. The current detected by each cell in the compound-free external fluid served as its own control. Each concentration was repeated independently 2-3 times. All electrophysiological experiments were performed at room temperature.
The voltage stimulation scheme for whole-cell patch-clamp recording of Nav1.8 currents was as follows: when a whole-cell seal was formed, the voltage was clamped at −120 mV. The resting state recording of sodium currents was performed by maintaining the voltage for 5s and then depolarizing it to 0 mV, and then administering a depolarizing pulse (TP1) to 0 m V for 50 ms for detecting the resting state sodium currents. For half-inactivated state recording, the voltage was first stepped at different voltages and maintained for 5s and then a depolarizing pulse was given to 0 mV to detect the Vhalf. […]

CYP2C19 = CYP2C19 (Homo sapiens (Human), UniProt P33261); experiment: Human liver microsomal CYP inhibition test, CYP2C19; format: in vitro ADME; conditions: human liver microsomes 0.2 mg/mL; substrate S-mephenytoin
Protocol: 3.1 Buffer solutions: (1) potassium phosphate 100 mM; (2) magnesium chloride, 33 mM;
3.2.3 Reservoir for compounds to be tested: Dissolving the compounds to be tested in DMSO to form a 10 mM DMSO solution.
3.5.3 Adding 20 μL of substrate solution to the appropriate wells and 20 μL of potassium phosphate buffer to the blank wells;
3.5.4 Adding 2 μL of different concentrations of target compounds (final concentrations from 0.05 μM to 50 μM, 7 concentrations in total) or standard inhibitors to each well, with 2 μL of methanol solution in the non-inhibitor and blank wells;
3.5.5 Adding 1.012 mL of liver microsomes to 78.988 mL of potassium phosphate buffer, then adding 158 μL of liver microsomes solution to all wells; preheating the well plate for 10 minutes in a 37° C. water bath;
3.5.6 Weighing 129.1 mg NADPH (purchased from SyncoZymes Co. Ltd.) and adding to 15.0 mL of 33 Mm MgCl2 solution to give a 10 mM concentration, adding 20 μL to each well;
3.5.7 Mixing and incubating the well plate in a 37° C. water bath for 10 minutes, then adding 400 μL of cold termination solution at the appropriate time point;
3.5.8 Centrifuging the sample at 4000 rpm for 20 minutes to precipitate the protein. Transferring 200 μL of supernatant to 100 μL of HPLC water and shaking for 10 minutes. The samples were analyzed by LC/MS/MS;
Percentage inhibition was plotted for blank control and different concentrations of target compounds by using XL fitting or SigmaPlot and the data were analyzed by non-linear regression. IC50 values were determined by using either 3-parameter or 4-parameter logistic equations.

Sequence of Nav1.8 sodium channel (Q9Y5Y9 whole entry): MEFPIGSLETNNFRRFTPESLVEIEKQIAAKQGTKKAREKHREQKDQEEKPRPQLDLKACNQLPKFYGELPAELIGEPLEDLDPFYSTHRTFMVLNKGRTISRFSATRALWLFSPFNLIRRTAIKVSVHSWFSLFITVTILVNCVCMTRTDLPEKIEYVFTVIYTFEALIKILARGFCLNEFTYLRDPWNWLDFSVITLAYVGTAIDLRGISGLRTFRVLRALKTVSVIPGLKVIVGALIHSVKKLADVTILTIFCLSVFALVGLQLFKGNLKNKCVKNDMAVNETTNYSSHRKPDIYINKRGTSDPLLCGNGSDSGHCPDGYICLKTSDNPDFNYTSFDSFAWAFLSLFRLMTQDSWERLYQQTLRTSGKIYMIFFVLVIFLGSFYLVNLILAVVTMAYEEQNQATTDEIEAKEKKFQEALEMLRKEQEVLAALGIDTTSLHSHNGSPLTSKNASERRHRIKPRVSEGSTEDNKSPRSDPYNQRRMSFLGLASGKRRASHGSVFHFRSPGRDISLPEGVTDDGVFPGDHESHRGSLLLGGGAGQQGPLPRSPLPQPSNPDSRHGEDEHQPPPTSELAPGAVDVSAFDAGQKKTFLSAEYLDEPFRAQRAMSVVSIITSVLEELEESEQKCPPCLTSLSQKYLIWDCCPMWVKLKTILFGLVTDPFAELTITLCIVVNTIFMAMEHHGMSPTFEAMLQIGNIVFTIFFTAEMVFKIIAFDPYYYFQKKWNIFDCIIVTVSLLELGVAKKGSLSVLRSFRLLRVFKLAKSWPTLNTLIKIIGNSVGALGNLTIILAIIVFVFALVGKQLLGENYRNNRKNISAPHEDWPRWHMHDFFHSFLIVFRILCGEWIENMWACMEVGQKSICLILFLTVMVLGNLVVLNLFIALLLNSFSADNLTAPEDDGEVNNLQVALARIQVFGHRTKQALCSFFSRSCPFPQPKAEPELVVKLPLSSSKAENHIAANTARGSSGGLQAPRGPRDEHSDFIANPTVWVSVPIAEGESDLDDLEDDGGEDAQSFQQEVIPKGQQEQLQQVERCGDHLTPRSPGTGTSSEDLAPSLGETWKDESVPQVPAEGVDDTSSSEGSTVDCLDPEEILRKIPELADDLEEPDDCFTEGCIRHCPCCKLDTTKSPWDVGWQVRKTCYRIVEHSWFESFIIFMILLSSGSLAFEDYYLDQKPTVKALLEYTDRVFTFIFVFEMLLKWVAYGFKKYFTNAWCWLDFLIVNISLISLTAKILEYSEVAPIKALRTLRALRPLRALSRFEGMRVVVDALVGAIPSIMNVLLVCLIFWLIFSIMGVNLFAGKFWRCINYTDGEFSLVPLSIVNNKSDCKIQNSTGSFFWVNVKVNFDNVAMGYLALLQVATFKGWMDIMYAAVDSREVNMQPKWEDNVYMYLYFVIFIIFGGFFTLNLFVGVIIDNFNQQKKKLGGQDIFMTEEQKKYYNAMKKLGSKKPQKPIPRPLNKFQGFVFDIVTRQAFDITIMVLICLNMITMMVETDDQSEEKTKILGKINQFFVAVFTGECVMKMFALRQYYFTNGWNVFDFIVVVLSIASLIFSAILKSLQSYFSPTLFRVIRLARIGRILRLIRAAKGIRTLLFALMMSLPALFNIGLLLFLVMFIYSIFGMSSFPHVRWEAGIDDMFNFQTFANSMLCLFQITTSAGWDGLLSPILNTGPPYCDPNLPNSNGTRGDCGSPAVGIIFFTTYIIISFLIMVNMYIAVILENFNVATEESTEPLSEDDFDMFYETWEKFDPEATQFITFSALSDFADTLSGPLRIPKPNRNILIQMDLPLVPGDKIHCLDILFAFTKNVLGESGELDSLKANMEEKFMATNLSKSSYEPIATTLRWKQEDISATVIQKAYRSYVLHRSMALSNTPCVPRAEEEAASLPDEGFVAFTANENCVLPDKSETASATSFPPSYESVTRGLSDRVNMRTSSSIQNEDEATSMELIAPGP
Sequence of CYP2C19 (P33261 whole entry): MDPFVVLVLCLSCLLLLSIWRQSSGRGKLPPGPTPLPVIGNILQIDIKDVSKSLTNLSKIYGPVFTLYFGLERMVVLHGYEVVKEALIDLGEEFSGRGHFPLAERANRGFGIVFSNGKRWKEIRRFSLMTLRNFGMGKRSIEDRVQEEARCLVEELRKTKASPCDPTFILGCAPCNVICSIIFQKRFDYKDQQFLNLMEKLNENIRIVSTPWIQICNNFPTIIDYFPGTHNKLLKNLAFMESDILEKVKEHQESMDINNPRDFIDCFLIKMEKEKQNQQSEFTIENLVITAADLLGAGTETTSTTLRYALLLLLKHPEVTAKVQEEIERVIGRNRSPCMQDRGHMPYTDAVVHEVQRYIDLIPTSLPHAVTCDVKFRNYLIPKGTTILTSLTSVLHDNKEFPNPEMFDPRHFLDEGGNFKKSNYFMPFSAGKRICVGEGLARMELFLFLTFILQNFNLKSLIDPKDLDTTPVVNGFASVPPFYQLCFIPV

| Compound | Blocking rate (%) @3 nM (Nav1.8 sodium channel) | Blocking rate(%) @10 nM (Nav1.8 sodium channel) | IC50 (Nav1.8 sodium channel) | IC50 (CYP2C19) |
| --- | --- | --- | --- | --- |
| 4-((2R,3S,4S,5R)-3-(3,4-difluoro-2-(methoxy-d3)phenyl)-4,5-dimethyl-5-(trifluoromethyl) pyrrolidine-2-carboxamido)pyridinamide [Compound 11] | 90.26% | 97.84% | 0.00073 µM |  |
| COc1c([C@H]2[C@H](C(=O)Nc3ccc[n+]([O-])c3)N[C@@](C)(C(F)(F)F)[C@H]2C)ccc(F)c1F [Compound 7, 3-((2R,3S,4S,5R)-3-(3,4-difluoro-2-methoxyphenyl)-4,5-dimethyl-5-(trifluoromethyl)pyrrolidine-2-carboxamido)pyridine 1-oxide] | 67.34% | 91.89% |  | 2.13 µM |
| COc1c([C@H]2[C@H](C(=O)Nc3cccc(S(N)(=O)=O)c3)N[C@@](C)(C(F)(F)F)[C@H]2C)ccc(F)c1F [Compound 8, (2R,3S,4S,5R)-3-(3,4-difluoro-2-methoxyphenyl)-4,5-dimethyl-aza-(3-aminosulfonylphenyl)-5-(trifluoromethyl) pyrrolidine-2-carboxamide] | 93.13% | 100.00% |  | 29 µM |
| COc1c([C@H]2[C@H](C(=O)Nc3ccnc(C(N)=O)c3)O[C@@](C)(C(F)(F)F)[C@H]2C)ccc(F)c1F [VX-548, reference compound] |  |  |  | 3.74 µM |
